Laboratory results as given in patent US20240166702A1, “COMPOSITIONS AND METHODS FOR TREATING BREAST CANCER” (Arizona Board of Regents on Behalf of The University of …, priority 2021, published 2024).

Legend:
[1] = tested on: BT20 cells; type: cell-based, human
Protocol: B. MDA-MD-468 cells were transduced with an IPTG inducible shEGFR targeted against the 3′ UTR of EGFR. These cells were incubated with IPTG for the indicated number of days and lysates were generated to confirm knock down of EGFR. C. In tandem with B., cells were plated and incubated +/−IPTG for 2 days prior to drug treatment. […] After 5 days of IPTG and 3 days of peptide treatment viability was measured using an MTT assay.
To investigate rt-EGFR, the role of the Sorting Nexins to regulate EGFR trafficking to the lysosome for degradation was investigated. To determine if SNX1 domains could be therapeutically mimicked, three SNX1-based peptides were synthesized, each of which was generated in tandem with a Cell Penetrating Peptide domain (PTD-4) to allow for intracellular penetration^19 (SNX1.1, 1.2 and 1.3, FIG. 2A). The ability of each peptide to reduce cell survival in the triple negative breast cancer cell line BT20 was evaluated.
EGFR activity is known to promote the activity of other RTKs, including those in the EGFR family (HER2, HER3 and HER4) and the c-Met receptor (Puri and Salgia 2008; Linklater et al. 2016). Therefore, the ability of SNX1.3 to inhibit 2D migration was next evaluated, both in response to EGF as well as other migration-inducing ligands. […] Cells were plated on plastic and allowed to migrate into an artificial wound over 12 hours. […] To determine if this inhibitory effect was restricted to EGF-induced migration, the ability of SNX1.3 to impact neuregulin (NRG1) was also tested and hepatic growth factor (HGF)-induced migration. NRG is the ligand for HER3 and HER4, and HGF the ligand for the c-Met receptor, both of which are receptor tyrosine kinases. In addition, soluble hyaluronic acid (HA)-induced migration, the ligand for CD44, was also tested [a non-kinase membrane receptor that induces migration (Louderbough, Lopez, and Schroeder 2010)]. […] Note that all receptors undergo endocytosis, with the RTKs primarily undergoing clathrin-dependent endocytosis, while CD44 endocytosis is clathrin-independent (Dutta and Donaldson 2015).

[2] = tested on: MCF10A cells; type: cell-based
[3] = tested on: WAP-TGFα tumors; assay: Histology and protein lysate analysis of treated WAP-TGFα tumors; type: in vivo, mouse
Description: Mice were bred continuously to induce transgene expression and palpated weekly for tumor formation. […] A. Changes in tumor size from entry into study until end of study are shown for each individual tumor, (*) indicate tumors that entered the study at size greater than 500 mm^3, all other tumors entered the study at ˜100 mm^3. B. a Kaplan-Meier survival curve was generated showing when mice were sacrificed by either reaching tumor burden (2000 mm^3) or the end of the study (p=0.0002). C. Upon sacrifice tumors were harvested and fixed in 10% formalin and embedded in paraffin. Slides were stained with hematoxylin and eosin and imaged at 20×. D. Protein lysates were generated from tumors upon sacrifice and probed for the indicated proteins.
(§1) A. Tumors (n=6 each treatment) from WAP-TGF mice as described in FIG. 1 were embedded and analyzed by NanoString. […] C. Tumors were dissected, lysed, and analyzed for apoptosis by probing for cleaved PARP and PDL1 expression.
At the end of the study, mice were sacrificed and tissues were collected and fixed in 10% buffered formalin or homogenized in tissue lysis buffer. Tissues were sectioned and evaluated for changes to tissue morphology in response to peptide treatment (FIG. 3C). […] Representative tumors from the PARP-cleavage positive (cSNX1.3-treated) and negative (cPTD4-treated) are shown (FIG. 3C).
(§2) Due to the increased leukocyte infiltration identified by histology of cSNX1.3-treated WAP-TGFα mice, NanoString analysis was performed using a panel that identifies alterations in immune regulators through localized analysis of transcript expression (PanCancer IO 360 Panel). […] These include several immune/inflammatory genes (such as CD2, TLR, CD28, H2-M3, Ly6C1, cytokines, and chemokines) as well as genes that could impact the metastatic potential of the microenvironment (including collagen 11A1 and MM P12). NanoString bioinformatics analysis further identified that these changes could be due to an increase in Cytotoxic T lymphocytes (CTLs) in cSNX1.3-treated samples compared to PTD4 (FIG. 8B). […] Therefore, tumor lysates were prepared and evaluated for apoptosis and a loss of the negative immune checkpoint receptor PDL1 (FIG. 8C). […] These changes could indicate an alteration from an immune-suppressive to an immune-surveilling microenvironment.

[4] = tested on: WAP-TGFα tumors; assay: NanoString analysis of WAP-TGFα tumors (PanCancer IO 360 Panel); type: in vivo, mouse
Protocol: as §1
(§3) C. WAP-TGFα tumors treated with either SNX1.3 or cPTD4 were analyzed for NK cells using an anti-NKp46 antibody. Inset is 20×.
as §2

[5] = tested on: MDA-MB-468 cells; assay: Bulk RNAseq of treated MDA-MB-468 cells; type: cell-based, human; conditions: MDA-MB-468, bulk RNAseq in triplicate
Protocol: as §3
A-C. […] A. A gene ontology enrichment bubble plot was produced, and the top 30 enriched GO terms are shown. Color indicates −1*log 10(FDR) for significance of overlap (the higher the more significant). X axis=log odds ratio for genes annotated to that GO term. […] C. RT-PCR analysis of IL1RL1.
(§4) In addition to bioinformatics identification of CTLs in these tumors, similar analysis implicated recruitment of NK cells as well (FIG. 9). As a part of the innate immune system, NK cells should only be recruited if a change has occurred to display NK-activating antigens. While there are many such antigens expressed under a variety of immune modulation conditions, some are highly associated with activation of NK cells against cancers, such as ULBP2/3 or MICA/MICB32.
A significant impact on the immune response, especially IL-1 dependent pathways was identified (FIG. 12A). IL-1-specific genes were searched and an upregulation in several IL1R genes, including IL1R2, IL1RL1, IL1RL2, IL1RAP and IL1RN (FIG. 12B) were found. […] It is hypothesized that the transient and targeted activation of the IL1/TLR pathway in the tumors may allow for the immune system to become active where previously these tumors were immune suppressive. […]

[6] = tested on: WAP-TGFα tumors; assay: Anti-NKp46 antibody analysis of WAP-TGFα tumors for NK cells; type: in vivo, mouse; conditions: anti-NKp46 antibodies
Protocol: as §3, §4

CC[C@H](C)[C@H](NC(=O)[C@@H](NC(=O)[C@H](Cc1c[nH]cn1)NC(=O)[C@H](CC(N)=O)NC(=O)[C@H](CCCCN)NC(=O)[C@H](C)NC(=O)[C@H](CCCNC(=N)N)NC(=O)[C@H](C)NC(=O)[C@H](CCC(N)=O)NC(=O)[C@H](CCCNC(=N)N)NC(=O)[C@H](C)NC(=O)[C@H](C)NC(=O)[C@H](C)NC(=O)[C@H](CCCNC(=N)N)NC(=O)[C@H](C)NC(=O)[C@H](Cc1ccc(O)cc1)NC(C)=O)C(C)C)C(=O)N[C@@H](CCCCN)C(=O)N[C@@H](Cc1ccc(O)cc1)C(=O)N[C@@H](CC(C)C)C(=O)N[C@@H](CCC(=O)O)C(=O)N[C@H](C(=O)N[C@@H](CC(C)C)C(=O)N[C@@H](CC(C)C)C(=O)N[C@@H](Cc1ccc(O)cc1)C(=O)N[C@@H](CO)C(=O)N[C@@H](CCC(N)=O)C(=O)N[C@@H](CCC(N)=O)C(=O)N[C@@H](CCC(N)=O)C(=O)N[C@@H](CC(C)C)C(=O)N[C@@H](C)C(=O)N[C@@H](CCCCN)C(=O)N[C@@H](Cc1ccc(O)cc1)C(=O)N[C@@H](Cc1c[nH]c2ccccc12)C(=O)N[C@@H](CCC(=O)O)C(=O)N[C@@H](C)C(=O)N[C@@H](Cc1ccccc1)C(=O)N[C@@H](CC(C)C)C(N)=O)[C@@H](C)O [cSNX1.3]
IC50 [1]: 25 µM
inhibition of cell survival, compared with Sapitinib ([1]; BT20, 3 days, MTT assay): more effective than Sapitinib
impact on normal immortalized cells [2]: almost no impact
changes to tissue architecture in the normal mammary gland ([3]; fixed tissue sections at end of study): No changes
leukocyte infiltration of tumors ([3]; identified by histology): increased
overall PDL1 expression in tumors ([3]; tumor lysates): decrease
cleaved PARP / apoptosis in treated tumors ([3]; tumor protein lysates at sacrifice): significant increase
expression of TLR1, TLR7, TLR8, TLR9, IRF5 and IRF8 ([4]; NanoString): increased expression
Cytotoxic T lymphocytes (CTLs) in tumors ([4]; NanoString bioinformatics, compared to PTD4, six tumors each): increase
NK cells in tumor samples ([4]; NanoString, compared to PTD4 control): increase
NK activating antigens ULBP2, ULBP3, MICA and MICB [5]: increased
PDL1 expression [5]: did not alter
NK cell infiltration into tumors [6]: Significant NK cell infiltration
